From ChEMBL document CHEMBL4261615, “Design, synthesis, biological evaluation and cellular imaging of imidazo[4,5-b]pyridine derivatives as potent and selective TAM inhibitors” (Bioorg Med Chem, 2018)
The source made the active and inactive calls. The calls are words filed in the database; no cut-off is given here.

Key:
[1] = target: T1, Tyrosine-protein kinase receptor TYRO3 (Homo sapiens) (UniProt Q06418); assay: Inhibition of recombinant GST-tagged human Tyro3 (451 to 890 residues) cytoplasmic domain expressed in Baculovirus expression system using poly (Glu-Ala-Tyr) peptide as substrate after 1.5 hrs by ELISA
T1 sequence (whole entry): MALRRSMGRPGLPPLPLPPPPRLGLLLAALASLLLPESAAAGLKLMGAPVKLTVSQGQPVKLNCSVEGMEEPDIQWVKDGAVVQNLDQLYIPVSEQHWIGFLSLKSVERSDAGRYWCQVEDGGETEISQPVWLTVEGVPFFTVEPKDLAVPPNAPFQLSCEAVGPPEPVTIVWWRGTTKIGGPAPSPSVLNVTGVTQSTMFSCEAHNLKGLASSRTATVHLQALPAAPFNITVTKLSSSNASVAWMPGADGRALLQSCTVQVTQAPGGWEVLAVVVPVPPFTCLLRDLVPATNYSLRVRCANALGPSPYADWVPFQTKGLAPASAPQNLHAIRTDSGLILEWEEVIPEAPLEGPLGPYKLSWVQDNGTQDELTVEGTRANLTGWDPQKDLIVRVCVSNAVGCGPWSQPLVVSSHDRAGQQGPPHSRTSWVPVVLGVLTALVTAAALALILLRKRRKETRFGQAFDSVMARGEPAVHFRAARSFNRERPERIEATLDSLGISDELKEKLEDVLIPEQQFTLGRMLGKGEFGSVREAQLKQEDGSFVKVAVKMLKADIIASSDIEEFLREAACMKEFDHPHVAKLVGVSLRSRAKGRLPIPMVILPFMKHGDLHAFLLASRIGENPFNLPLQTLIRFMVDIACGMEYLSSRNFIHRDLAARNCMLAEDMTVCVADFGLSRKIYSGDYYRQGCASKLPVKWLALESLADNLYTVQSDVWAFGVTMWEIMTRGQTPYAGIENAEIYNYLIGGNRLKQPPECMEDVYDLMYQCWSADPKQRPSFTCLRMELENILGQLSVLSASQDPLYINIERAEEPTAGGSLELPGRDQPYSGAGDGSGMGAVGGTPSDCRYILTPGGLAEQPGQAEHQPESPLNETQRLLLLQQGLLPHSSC

[2] = target: Tyrosine-protein kinase ABL1 (Homo sapiens) (UniProt P00519); assay: Binding affinity to human wild type ABL1 (229 to 512 residues) expressed in mammalian expression system assessed as fraction of unbound kinase to substrate at 1 uM after 1 hr by KinomeScan assay
[3] = target: Cyclin-dependent kinase 2 (Homo sapiens) (UniProt P24941); assay: Binding affinity to wild-type human full length CDK2 (M1 to L298 residues) expressed in bacterial expression system assessed as fraction of unbound kinase to substrate at 0.1 uM after 1 hr by KinomeScan assay
[4] = target: Epidermal growth factor receptor (Homo sapiens) (UniProt P00533); assay: Binding affinity to partial length wild type human EGFR (R669 to V1011 residues) expressed in bacterial expression system assessed as fraction of unbound kinase to substrate at 0.1 uM after 1 hr by KinomeScan assay
[5] = target: Epidermal growth factor receptor (Homo sapiens) (UniProt P00533); assay: Binding affinity to partial length wild type human EGFR (R669 to V1011 residues) expressed in bacterial expression system assessed as fraction of unbound kinase to substrate at 1 uM after 1 hr by KinomeScan assay
[6] = target: Epidermal growth factor receptor (Homo sapiens) (UniProt P00533); assay: Binding affinity to partial length wild type human EGFR (R669 to V1011 residues) expressed in bacterial expression system assessed as fraction of unbound kinase to substrate at 10 uM after 1 hr by KinomeScan assay
[7] = target: Fibroblast growth factor receptor 1 (Homo sapiens) (UniProt P11362); assay: Binding affinity to wild-type human partial length FGFR1 (P357 to V669 residues) expressed in bacterial expression system assessed as fraction of unbound kinase to substrate at 10 uM after 1 hr by KinomeScan assay
[8] = target: Glycogen synthase kinase-3 beta (Homo sapiens) (UniProt P49841); assay: Binding affinity to full length wild type human GSK3beta (M1 to T433 residues) expressed in mammalian expression system assessed as fraction of unbound kinase to substrate at 0.1 uM after 1 hr by KinomeScan assay
[9] = target: Glycogen synthase kinase-3 beta (Homo sapiens) (UniProt P49841); assay: Binding affinity to full length wild type human GSK3beta (M1 to T433 residues) expressed in mammalian expression system assessed as fraction of unbound kinase to substrate at 10 uM after 1 hr by KinomeScan assay
[10] = target: Hepatocyte growth factor receptor (Homo sapiens) (UniProt P08581); assay: Binding affinity to human MET (D1010 to S1367 residues) expressed in bacterial expression system assessed as fraction of unbound kinase to substrate at 0.1 uM after 1 hr by KinomeScan assay
[11] = target: T1, Tyrosine-protein kinase receptor TYRO3 (Homo sapiens); assay: Binding affinity to wild-type human partial length TYRO3 (S497 to T814 residues) expressed in bacterial expression system assessed as fraction of unbound kinase to substrate at 0.1 uM after 1 hr by KinomeScan assay
[12] = target: T1, Tyrosine-protein kinase receptor TYRO3 (Homo sapiens); assay: Binding affinity to wild-type human partial length TYRO3 (S497 to T814 residues) expressed in bacterial expression system assessed as fraction of unbound kinase to substrate at 1 uM after 1 hr by KinomeScan assay
[13] = target: Tyrosine-protein kinase receptor UFO (Homo sapiens) (UniProt P30530); assay: Binding affinity to human AXL (R497 to Y821 residues) expressed in bacterial expression system assessed as fraction of unbound kinase to substrate at 0.1 uM after 1 hr by KinomeScan assay
RT-112 = assay: Antiproliferative activity against human RT112 cells after 72 hrs by CellTiter-Glo assay; format: functional, cell-based

Fibroblast growth factor receptor 1 (Homo sapiens), sequence (P11362 22-822 limits assumed): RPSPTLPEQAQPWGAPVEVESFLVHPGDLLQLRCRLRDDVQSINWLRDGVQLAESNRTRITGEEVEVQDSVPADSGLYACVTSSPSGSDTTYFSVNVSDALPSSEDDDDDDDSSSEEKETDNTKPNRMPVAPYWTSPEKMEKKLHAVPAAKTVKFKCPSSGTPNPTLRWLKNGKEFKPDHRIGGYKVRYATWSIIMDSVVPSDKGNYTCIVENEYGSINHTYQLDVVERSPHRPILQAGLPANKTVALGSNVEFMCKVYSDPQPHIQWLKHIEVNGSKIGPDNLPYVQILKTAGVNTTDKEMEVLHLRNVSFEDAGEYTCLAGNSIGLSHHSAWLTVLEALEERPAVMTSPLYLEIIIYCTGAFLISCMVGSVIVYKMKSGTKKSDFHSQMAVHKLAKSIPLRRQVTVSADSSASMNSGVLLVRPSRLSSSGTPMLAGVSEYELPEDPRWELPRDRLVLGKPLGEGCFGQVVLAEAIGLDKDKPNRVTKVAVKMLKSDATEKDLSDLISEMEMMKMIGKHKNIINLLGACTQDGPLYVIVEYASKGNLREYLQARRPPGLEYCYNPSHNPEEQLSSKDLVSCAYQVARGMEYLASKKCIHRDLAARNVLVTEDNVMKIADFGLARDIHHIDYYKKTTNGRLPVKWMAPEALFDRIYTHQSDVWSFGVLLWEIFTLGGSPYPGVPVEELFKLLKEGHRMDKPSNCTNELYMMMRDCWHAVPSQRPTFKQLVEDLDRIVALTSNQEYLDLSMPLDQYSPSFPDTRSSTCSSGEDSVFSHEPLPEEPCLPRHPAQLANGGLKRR
Hepatocyte growth factor receptor (Homo sapiens), sequence (P08581 whole entry, the tested form may be a part): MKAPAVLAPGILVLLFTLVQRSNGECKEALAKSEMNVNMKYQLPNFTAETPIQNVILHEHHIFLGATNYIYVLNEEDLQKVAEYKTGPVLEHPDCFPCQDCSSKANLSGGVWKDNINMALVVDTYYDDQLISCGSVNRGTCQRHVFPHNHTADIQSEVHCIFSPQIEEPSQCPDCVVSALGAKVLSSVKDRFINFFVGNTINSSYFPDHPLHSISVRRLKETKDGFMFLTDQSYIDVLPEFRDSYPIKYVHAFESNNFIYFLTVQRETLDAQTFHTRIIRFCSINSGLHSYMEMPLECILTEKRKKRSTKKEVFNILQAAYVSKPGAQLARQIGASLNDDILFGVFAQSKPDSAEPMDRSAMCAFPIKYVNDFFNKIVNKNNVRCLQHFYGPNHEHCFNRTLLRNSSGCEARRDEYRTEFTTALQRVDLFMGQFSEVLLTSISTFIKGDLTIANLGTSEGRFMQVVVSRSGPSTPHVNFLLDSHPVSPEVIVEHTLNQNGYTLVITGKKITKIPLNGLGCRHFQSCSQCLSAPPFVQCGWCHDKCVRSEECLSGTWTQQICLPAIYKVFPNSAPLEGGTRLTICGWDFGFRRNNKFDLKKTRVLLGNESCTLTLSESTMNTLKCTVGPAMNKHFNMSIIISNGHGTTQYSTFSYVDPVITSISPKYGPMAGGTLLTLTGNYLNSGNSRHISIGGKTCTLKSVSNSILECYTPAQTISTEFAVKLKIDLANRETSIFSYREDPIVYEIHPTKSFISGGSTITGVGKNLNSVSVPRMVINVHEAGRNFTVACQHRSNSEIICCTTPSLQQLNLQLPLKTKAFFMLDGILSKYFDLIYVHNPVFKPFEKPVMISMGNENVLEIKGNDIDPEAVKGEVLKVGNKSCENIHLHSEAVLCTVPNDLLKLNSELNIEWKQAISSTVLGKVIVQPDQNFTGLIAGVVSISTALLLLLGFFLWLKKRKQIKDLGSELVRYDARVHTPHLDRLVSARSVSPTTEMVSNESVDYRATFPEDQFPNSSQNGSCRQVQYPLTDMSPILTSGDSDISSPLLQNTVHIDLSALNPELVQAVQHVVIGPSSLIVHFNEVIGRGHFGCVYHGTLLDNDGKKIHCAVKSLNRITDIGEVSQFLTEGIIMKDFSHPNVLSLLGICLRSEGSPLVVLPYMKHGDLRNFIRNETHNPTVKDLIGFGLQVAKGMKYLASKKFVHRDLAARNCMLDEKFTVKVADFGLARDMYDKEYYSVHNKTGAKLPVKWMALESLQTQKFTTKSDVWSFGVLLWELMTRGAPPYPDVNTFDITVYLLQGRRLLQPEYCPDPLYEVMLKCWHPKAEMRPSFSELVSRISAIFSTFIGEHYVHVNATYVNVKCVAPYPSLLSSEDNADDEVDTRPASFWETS
Tyrosine-protein kinase receptor UFO (Homo sapiens), sequence (P30530 whole entry, the tested form may be a part): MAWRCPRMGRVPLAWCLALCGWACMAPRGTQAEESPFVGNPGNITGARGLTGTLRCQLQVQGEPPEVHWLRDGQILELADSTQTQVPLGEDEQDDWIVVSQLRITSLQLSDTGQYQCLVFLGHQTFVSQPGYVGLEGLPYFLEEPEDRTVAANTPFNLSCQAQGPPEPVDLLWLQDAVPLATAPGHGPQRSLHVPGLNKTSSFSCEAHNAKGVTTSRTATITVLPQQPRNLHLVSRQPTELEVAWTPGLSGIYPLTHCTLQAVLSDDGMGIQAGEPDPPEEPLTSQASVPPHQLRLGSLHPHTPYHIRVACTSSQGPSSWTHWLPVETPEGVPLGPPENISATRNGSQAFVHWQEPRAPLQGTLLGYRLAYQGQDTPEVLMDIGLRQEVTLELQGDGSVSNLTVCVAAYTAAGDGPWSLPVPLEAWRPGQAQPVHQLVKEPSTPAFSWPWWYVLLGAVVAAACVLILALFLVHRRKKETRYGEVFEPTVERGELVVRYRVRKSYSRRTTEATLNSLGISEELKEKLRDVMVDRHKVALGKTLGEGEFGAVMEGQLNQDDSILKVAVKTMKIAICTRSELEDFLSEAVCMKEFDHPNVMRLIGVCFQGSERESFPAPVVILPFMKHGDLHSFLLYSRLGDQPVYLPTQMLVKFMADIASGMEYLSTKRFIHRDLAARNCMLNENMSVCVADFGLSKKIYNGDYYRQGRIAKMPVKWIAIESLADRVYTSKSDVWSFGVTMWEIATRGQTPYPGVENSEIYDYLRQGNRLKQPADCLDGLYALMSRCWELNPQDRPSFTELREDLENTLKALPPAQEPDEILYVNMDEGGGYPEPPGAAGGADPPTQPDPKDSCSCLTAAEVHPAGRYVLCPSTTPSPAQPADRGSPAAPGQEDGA
Epidermal growth factor receptor (Homo sapiens), sequence (P00533 whole entry, the tested form may be a part): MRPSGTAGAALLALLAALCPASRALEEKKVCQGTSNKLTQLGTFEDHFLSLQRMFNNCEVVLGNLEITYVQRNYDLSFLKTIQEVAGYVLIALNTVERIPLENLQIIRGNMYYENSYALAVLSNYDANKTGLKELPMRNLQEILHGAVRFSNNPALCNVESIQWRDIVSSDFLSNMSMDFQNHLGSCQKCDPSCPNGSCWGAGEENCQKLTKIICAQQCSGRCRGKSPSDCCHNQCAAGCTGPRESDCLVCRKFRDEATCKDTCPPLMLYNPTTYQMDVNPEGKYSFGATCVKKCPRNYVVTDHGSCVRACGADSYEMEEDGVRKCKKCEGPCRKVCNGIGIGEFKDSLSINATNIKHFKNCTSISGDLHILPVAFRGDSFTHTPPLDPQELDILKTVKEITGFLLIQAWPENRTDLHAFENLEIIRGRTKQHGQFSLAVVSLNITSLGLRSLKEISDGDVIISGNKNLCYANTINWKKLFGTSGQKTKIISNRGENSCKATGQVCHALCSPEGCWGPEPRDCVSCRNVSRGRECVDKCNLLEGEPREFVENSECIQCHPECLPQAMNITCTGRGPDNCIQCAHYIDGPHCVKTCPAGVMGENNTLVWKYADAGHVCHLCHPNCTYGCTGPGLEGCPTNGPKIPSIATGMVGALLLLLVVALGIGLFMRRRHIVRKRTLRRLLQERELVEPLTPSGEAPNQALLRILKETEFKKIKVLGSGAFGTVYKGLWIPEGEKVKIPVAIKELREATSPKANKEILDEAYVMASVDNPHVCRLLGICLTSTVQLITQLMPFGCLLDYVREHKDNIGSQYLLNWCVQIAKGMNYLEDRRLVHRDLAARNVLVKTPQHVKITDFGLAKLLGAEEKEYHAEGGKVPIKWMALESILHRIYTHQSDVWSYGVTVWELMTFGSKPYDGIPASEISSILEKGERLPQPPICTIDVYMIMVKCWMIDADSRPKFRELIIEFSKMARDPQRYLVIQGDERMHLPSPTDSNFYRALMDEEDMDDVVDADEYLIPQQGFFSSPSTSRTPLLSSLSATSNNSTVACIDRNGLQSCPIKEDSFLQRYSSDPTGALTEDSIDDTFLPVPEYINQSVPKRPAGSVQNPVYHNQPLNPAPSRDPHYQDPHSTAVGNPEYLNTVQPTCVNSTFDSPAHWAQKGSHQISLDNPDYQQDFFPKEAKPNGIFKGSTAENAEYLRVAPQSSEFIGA
Glycogen synthase kinase-3 beta (Homo sapiens), sequence (P49841 whole entry, looked up, the tested form may be a part): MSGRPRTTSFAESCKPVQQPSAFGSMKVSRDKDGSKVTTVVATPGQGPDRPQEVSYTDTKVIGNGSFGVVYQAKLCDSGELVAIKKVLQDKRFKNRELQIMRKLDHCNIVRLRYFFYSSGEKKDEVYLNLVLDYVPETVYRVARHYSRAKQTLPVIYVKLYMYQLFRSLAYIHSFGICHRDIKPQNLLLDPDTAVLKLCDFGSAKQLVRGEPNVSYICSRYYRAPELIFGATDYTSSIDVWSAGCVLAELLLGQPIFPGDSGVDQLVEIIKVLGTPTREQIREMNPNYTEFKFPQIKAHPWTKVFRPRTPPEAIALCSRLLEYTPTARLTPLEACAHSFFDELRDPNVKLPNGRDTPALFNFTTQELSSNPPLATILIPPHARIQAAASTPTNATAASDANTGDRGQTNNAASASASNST

| inhibition [1] | Activity [2] | Activity [3] | Activity [4] | Activity [5] | Activity [6] | Activity [7] | Activity [8] | Activity [9] | Activity [10] | Activity [11] | Activity [12] | Activity [13] | Structure (SMILES) | Activity (RT-112) |
| --- | --- | --- | --- | --- | --- | --- | --- | --- | --- | --- | --- | --- | --- | --- |
| inactive | 1% | 0% | 1% | 0% | 0% | 15% | 2% | 0% | 54% | 0% | 0% | 22% | Cc1cnc2[nH]cnc2c1Oc1ccc(NC(=O)c2cccn(-c3ccc(F)cc3)c2=O)cc1F | inactive |
| inactive | 3% | 41% | 2% | 0% | 8% | 1% | 0% | 0% | 83% | 1% | 39% | 61% | CC(C)c1nc2c(Oc3ccc(NC(=O)c4cccn(-c5ccc(F)cc5)c4=O)cc3F)ccnc2[nH]1 | inactive |
| inactive | 0% | 0% | 0% | 0% | 1% | 11% | 0% | 0% | 12% | 15% | 11% | 4% | O=C(Nc1ccc(Oc2c(Br)cnc3[nH]cnc23)c(F)c1)c1cccn(-c2ccc(F)cc2)c1=O |  |
| Active | 13% | 0% | 0% | 0% | 0% | 6% | 0% | 6% | 83% | 17% | 81% | 78% | O=C(Nc1ccc(Oc2ccnc3[nH]cnc23)c(F)c1)c1cccn(-c2ccc(F)cc2)c1=O | inactive |
